# In the supplement of paper PMC11451515:
# Tested on: NOMO1
# Experiment: cell viability relative to DMSO control; higher = less cytotoxic
# Conditions: 48 h
# How it was run: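 Library compounds in DMSO were pin-dosed into 1536-well plates (5 μl) holding NOMO1 or SEM (500 cells/well) or P12-Ichikawa (1000 cells/well) leukemia cells, across an 11-point threefold series of 47 μM to 0.79 nM. Each cell line had been adapted for at least four passages in each medium. CellTiter-Glo One luminescence was read after 48 h at 37°C. Viability is the per-plate percentage relative to DMSO wells, with cell-free wells as background.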
# [1] = HPLM + 10% dialyzed FBS, 0.000781 µM
# [2] = HPLM + 10% dialyzed FBS, 0.00234 µM
# [3] = HPLM + 10% dialyzed FBS, 0.00702 µM
# [4] = HPLM + 10% dialyzed FBS, 0.0211 µM
# [5] = HPLM + 10% dialyzed FBS, 0.0632 µM
# [6] = HPLM + 10% dialyzed FBS, 0.19 µM
# [7] = HPLM + 10% dialyzed FBS, 0.569 µM
# [8] = HPLM + 10% dialyzed FBS, 1.71 µM
# [9] = HPLM + 10% dialyzed FBS, 5.12 µM
# [10] = HPLM + 10% dialyzed FBS, 15.4 µM
# [11] = HPLM + 10% dialyzed FBS, 46.1 µM
# [12] = RPMI 5 mM glucose + 10% FBS, 0.000781 µM
# [13] = RPMI 5 mM glucose + 10% FBS, 0.00234 µM
# [14] = RPMI 5 mM glucose + 10% FBS, 0.00702 µM
# [15] = RPMI 5 mM glucose + 10% FBS, 0.0211 µM
# [16] = RPMI 5 mM glucose + 10% FBS, 0.0632 µM
# [17] = RPMI 5 mM glucose + 10% FBS, 0.19 µM
# [18] = RPMI 5 mM glucose + 10% FBS, 0.569 µM
# [19] = RPMI 5 mM glucose + 10% FBS, 1.71 µM
# [20] = RPMI 5 mM glucose + 10% FBS, 5.12 µM
# [21] = RPMI 5 mM glucose + 10% FBS, 15.4 µM
# [22] = RPMI 5 mM glucose + 10% FBS, 46.1 µM
# [23] = RPMI 5 mM glucose + 10% dialyzed FBS, 0.000781 µM
# [24] = RPMI 5 mM glucose + 10% dialyzed FBS, 0.00234 µM
# [25] = RPMI 5 mM glucose + 10% dialyzed FBS, 0.00702 µM
# [26] = RPMI 5 mM glucose + 10% dialyzed FBS, 0.0211 µM
# [27] = RPMI 5 mM glucose + 10% dialyzed FBS, 0.0632 µM
# [28] = RPMI 5 mM glucose + 10% dialyzed FBS, 0.19 µM
# [29] = RPMI 5 mM glucose + 10% dialyzed FBS, 0.569 µM
# [30] = RPMI 5 mM glucose + 10% dialyzed FBS, 1.71 µM
# [31] = RPMI 5 mM glucose + 10% dialyzed FBS, 5.12 µM
# [32] = RPMI 5 mM glucose + 10% dialyzed FBS, 15.4 µM
# [33] = RPMI 5 mM glucose + 10% dialyzed FBS, 46.1 µM
SMILES,cell viability [1] [%],cell viability [2] [%],cell viability [3] [%],cell viability [4] [%],cell viability [5] [%],cell viability [6] [%],cell viability [7] [%],cell viability [8] [%],cell viability [9] [%],cell viability [10] [%],cell viability [11] [%],cell viability [12] [%],cell viability [13] [%],cell viability [14] [%],cell viability [15] [%],cell viability [16] [%],cell viability [17] [%],cell viability [18] [%],cell viability [19] [%],cell viability [20] [%],cell viability [21] [%],cell viability [22] [%],cell viability [23] [%],cell viability [24] [%],cell viability [25] [%],cell viability [26] [%],cell viability [27] [%],cell viability [28] [%],cell viability [29] [%],cell viability [30] [%],cell viability [31] [%],cell viability [32] [%],cell viability [33] [%]
Cc1[nH]c2ccccc2c1CCNCc1ccc(/C=C/C(=O)NO)cc1,102,108,126,99.9,137,103,61.8,14.2,9,8.41,8.11,111,118,108,106,110,102,82.9,10.9,7.29,7.8,7.5,106,122,116,99.5,122,110,84.4,13,8.52,9.32,7.81
C=C[C@H]1CN2CC[C@H]1C[C@H]2[C@H](O)c1ccnc2ccc(OC)cc12,116,89.2,96.3,109,105,98.4,115,96.4,112,101,86.8,86.5,87.5,84.3,87.8,103,97.9,98.7,103,99.5,97.6,76.4,92.3,103,98.9,96.1,104,108,113,105,106,105,68.8
CN(NC(=O)CC(=O)NN(C)C(=S)c1ccccc1)C(=S)c1ccccc1,85.2,101,91.7,111,52.3,21.7,3.16,4.21,4.19,4.38,6.98,86,80.2,97.5,95.2,53.4,16.7,3.21,3.39,4.47,6.75,15.8,83.4,89.2,82.1,94.6,39,10.7,2.4,2.7,3.68,2.79,9.44
COc1ncc(-c2ccc3nccc(-c4ccnnc4)c3c2)cc1N[S+](=O)([O-])c1ccc(F)cc1F,95.5,81.2,76.8,89.6,75.1,66.3,60.5,45.8,41.7,31.9,29.7,121,96.1,92.3,79.8,76,72.8,69.7,43.1,29.9,27.8,21,104,92.1,86.2,76.6,72.9,62.6,64,44.7,38.1,29.7,19.9
CCC(C)(C)c1ccc(CC(C)CN2C[C@@H](C)O[C@@H](C)C2)cc1 (some centres undefined),87.4,91.8,87.9,82,93.3,84.8,97,80.9,93.6,87.1,87.9,71.5,74.7,73.5,77.9,77.5,76.5,75.8,82.3,77.9,80.7,77.5,69.8,87.9,78.8,77,83.4,82,90.2,84,85.2,86.2,88
C[C@]12CC[C@@H]3c4ccc(O)cc4C[C@@H](CCCCCCCCC[S+]([O-])CCCC(F)(F)C(F)(F)F)[C@H]3[C@@H]1CC[C@@H]2O (some centres undefined),–,–,–,–,–,–,–,–,–,–,–,103,118,104,131,121,113,107,104,115,118,104,–,–,–,–,–,–,–,–,–,–,–
CC(C)C(=O)Oc1ccc(CO)cc1[C@H](CCN(C(C)C)C(C)C)c1ccccc1,99.1,104,85.7,87,85.6,91.8,93.3,88.9,78.9,81.1,71.7,85.2,78.8,88.8,93.3,82.5,76,80,83.4,85.2,79.1,78.4,78.3,79.6,86.4,78.9,73.8,79.2,73.5,80.8,77.4,82.5,79.1
CN1\C(=C(\O)C2=CC=CC=C2[S+]1([O-])=O)C(=O)NC3=NC=C(C)S3,101,111,101,114,99.5,116,113,116,102,86.1,116,81.1,91.5,88.4,91.7,98.7,96.8,101,88.3,96.7,99.3,95.9,84.2,86.3,85.6,81.9,81.5,93.6,79.6,76,91.9,92.7,91.8
CC(C)NC[C@@H](C(=O)N1CCN(c2ncnc3c2[C@H](C)C[C@H]3O)CC1)c1ccc(Cl)cc1,115,115,119,117,109,103,109,110,79,51.4,18.6,109,121,109,100,111,109,107,105,102,73.8,47.8,124,89.2,115,100,103,100,108,87.8,81.6,57.6,43.1
COc1ccc(-c2nc(N3CCOCC3)c3sc(CN(C)c4ncc(C(=O)NO)cn4)cc3n2)cn1,109,132,86.2,62.8,12.6,8.22,7.83,8.13,7.89,7.72,6.31,110,112,100,65.4,14.2,8.1,8.11,8.29,7.05,7.28,6.26,117,132,104,73.7,22.8,7.51,7.58,7.17,6.72,6.98,6.02
Cc1cnc(NC(=O)Nc2cc(Br)c(C)cc2OC[C@@H]2CNCCO2)cn1,122,130,107,127,130,120,95.1,69.5,30.9,35.5,26.6,108,120,107,107,119,117,101,99,51,94.2,22.5,111,106,109,116,121,108,110,68.1,23.1,32.8,17.9
COc1cc2c(cc1OC)CC(=O)N(CCCN(C)C[C@H]1Cc3cc(OC)c(OC)cc31)CC2.Cl,126,115,107,122,97.1,111,122,112,114,115,109,104,105,99.2,106,100,102,102,99.6,105,97.5,95.3,111,114,130,115,113,106,92.6,110,110,93,100
CC(C)(C)c1[nH]cnc1/C=c1\[nH]c(=O)/c(=C/c2ccccc2)[nH]c1=O,101,76.7,31,46,52.7,37.5,42.1,32.5,20.3,22.1,5.6,128,109,24.3,24.5,28.9,23.9,24.9,17.4,18.4,14.6,6.53,103,105,24.9,26.2,29.5,27.8,30.6,20.8,23.2,16.5,3.92
C\C1=C(\C=C(\C#N)C(=O)N1)C2=CC=NC=C2,98.3,114,117,116,133,118,123,131,114,103,108,94.7,108,110,104,109,111,106,127,103,97.5,71.5,112,108,119,118,115,114,120,115,114,110,81.2
COCCCN1CCC(NC(=O)c2cc(Cl)c(N)c3c2OCC3)CC1,116,124,127,119,147,137,133,150,142,137,110,–,–,–,–,–,–,–,–,–,–,–,–,–,–,–,–,–,–,–,–,–,–
CN(C)C1=CC=C(C=C1)C(C2=CC=C(C=C2)N(C)C)=C/3\C=C/C(/C=C3)=[N+](C)C,102,114,136,132,103,26.6,9.97,4.17,4.13,1.55,0.245,113,98.4,101,113,107,27.2,6.73,2.46,2.87,0.606,-0.00921,112,101,110,100,96.9,33.1,11.3,5.56,5.09,1.49,0.371
